Source: article PMC12014616, “HPLC-UV method development and validation for anticancer drug sorafenib and the co-prescribed drug dexamethasone: application to pharmacokinetic evaluation of sorafenib nanoformulations” (Frontiers in Pharmacology, 2025)

Test: Stability of sorafenib-spiked plasma samples at different storage conditions
Format: physicochemical
Experimental: The plasma was separated from the blood by centrifugation at 8,000 rpm for 10 min at […]. The plasma (200 µL) was spiked with sorafenib, dexamethasone, and IS, the protein was precipitated with acetonitrile, and the extraction of the analytes was carried out with ACN, MeOH, and DCM. The following plan was applied to obtain the sample (Figure 2), and a sample (20 µL) was applied for analysis.
Linearity was confirmed through least squares regression, while sensitivity was measured on the basis of the S/N ratio of HPLC software. The S/N ratios are 3 and 10 for LOD and LOQ, respectively. Similar robustness was tested through planned changes in parameters while stability studies were performed at different storage conditions (‒20°C, 4°C, and 25°C) for a month using Equation 3. % Stability=St/So X 100, (3) where St indicates stability at time t, and S0 indicates stability at time 0.

SMILES: CNC(=O)c1cc(Oc2ccc(NC(=O)Nc3ccc(Cl)c(C(F)(F)F)c3)cc2)ccn1 [sorafenib, Sorafenib]
- % Recovery (Mean ± SD) (4°C, 6 hours, 250 ng/mL): 98.13 ± 0.19; 0.19%
- % Recovery (Mean ± SD) (4°C, 6 hours, 500 ng/mL): 98.29 ± 0.65; 0.66%
- % Recovery (Mean ± SD) (4°C, 6 hours, 1,000 ng/mL): 98.91 ± 0.91; 0.92%
- % Recovery (Mean ± SD) (4°C, 24 hours, 250 ng/mL): 98.11 ± 0.38; 0.77%
- % Recovery (Mean ± SD) (4°C, 24 hours, 500 ng/mL): 98.30 ± 0.67; 0.68%
- % Recovery (Mean ± SD) (4°C, 24 hours, 1,000 ng/mL): 98.05 ± 0.68; 0.69%
- % Recovery (Mean ± SD) (4°C, 72 hours, 250 ng/mL): 97.36 ± 0.85; 0.87%
- % Recovery (Mean ± SD) (4°C, 72 hours, 500 ng/mL): 96.99 ± 0.32; 0.33%
- % Recovery (Mean ± SD) (4°C, 72 hours, 1,000 ng/mL): 96.93 ± 0.48; 0.50%
- % Recovery (Mean ± SD) (25°C, 0 hours, 250 ng/mL): 98.15 ± 0.44; 0.45%
- % Recovery (Mean ± SD) (25°C, 0 hours, 500 ng/mL): 98.25 ± 0.55; 0.56%
- % Recovery (Mean ± SD) (25°C, 0 hours, 1,000 ng/mL): 98.55 ± 0.19; 0.19%
- % Recovery (Mean ± SD) (25°C, 6 hours, 250 ng/mL): 97.45 ± 0.34; 0.35%
- % Recovery (Mean ± SD) (25°C, 6 hours, 500 ng/mL): 97.39 ± 0.12; 0.12%
- % Recovery (Mean ± SD) (25°C, 6 hours, 1,000 ng/mL): 98.05 ± 0.15; 0.15%
- % Recovery (Mean ± SD) (25°C, 24 hours, 250 ng/mL): 95.51 ± 0.53; 0.55%
- % Recovery (Mean ± SD) (25°C, 24 hours, 500 ng/mL): 96.05 ± 0.41; 0.43%
- % Recovery (Mean ± SD) (25°C, 24 hours, 1,000 ng/mL): 97.55 ± 0.26; 0.27%
- % Recovery (Mean ± SD) (25°C, 72 hours, 250 ng/mL): 85.90 ± 0.50; 0.58%
- % Recovery (Mean ± SD) (25°C, 72 hours, 500 ng/mL): 84.95 ± 0.34; 0.40%
- % Recovery (Mean ± SD) (25°C, 72 hours, 1,000 ng/mL): 88.25 ± 0.74; 0.84%
- % Recovery (Mean ± SD) (freeze and thaw 3x, 250 ng/mL): 96.41 ± 0.17; 0.18%
- % Recovery (Mean ± SD) (freeze and thaw 3x, 500 ng/mL): 97.05 ± 0.22; 0.23%
- % Recovery (Mean ± SD) (freeze and thaw 3x, 1,000 ng/mL): 98.00 ± 0.87; 0.89%
